Molecules are shown by their SMILES.

In this assay the target is T1, full-length human Mineralocorticoid Receptor (MR) (Homo sapiens, UniProt P08235).
T1 construct: host or cells: PathHunter CHO-K1 cells
T1 sequence (P08235 1-984): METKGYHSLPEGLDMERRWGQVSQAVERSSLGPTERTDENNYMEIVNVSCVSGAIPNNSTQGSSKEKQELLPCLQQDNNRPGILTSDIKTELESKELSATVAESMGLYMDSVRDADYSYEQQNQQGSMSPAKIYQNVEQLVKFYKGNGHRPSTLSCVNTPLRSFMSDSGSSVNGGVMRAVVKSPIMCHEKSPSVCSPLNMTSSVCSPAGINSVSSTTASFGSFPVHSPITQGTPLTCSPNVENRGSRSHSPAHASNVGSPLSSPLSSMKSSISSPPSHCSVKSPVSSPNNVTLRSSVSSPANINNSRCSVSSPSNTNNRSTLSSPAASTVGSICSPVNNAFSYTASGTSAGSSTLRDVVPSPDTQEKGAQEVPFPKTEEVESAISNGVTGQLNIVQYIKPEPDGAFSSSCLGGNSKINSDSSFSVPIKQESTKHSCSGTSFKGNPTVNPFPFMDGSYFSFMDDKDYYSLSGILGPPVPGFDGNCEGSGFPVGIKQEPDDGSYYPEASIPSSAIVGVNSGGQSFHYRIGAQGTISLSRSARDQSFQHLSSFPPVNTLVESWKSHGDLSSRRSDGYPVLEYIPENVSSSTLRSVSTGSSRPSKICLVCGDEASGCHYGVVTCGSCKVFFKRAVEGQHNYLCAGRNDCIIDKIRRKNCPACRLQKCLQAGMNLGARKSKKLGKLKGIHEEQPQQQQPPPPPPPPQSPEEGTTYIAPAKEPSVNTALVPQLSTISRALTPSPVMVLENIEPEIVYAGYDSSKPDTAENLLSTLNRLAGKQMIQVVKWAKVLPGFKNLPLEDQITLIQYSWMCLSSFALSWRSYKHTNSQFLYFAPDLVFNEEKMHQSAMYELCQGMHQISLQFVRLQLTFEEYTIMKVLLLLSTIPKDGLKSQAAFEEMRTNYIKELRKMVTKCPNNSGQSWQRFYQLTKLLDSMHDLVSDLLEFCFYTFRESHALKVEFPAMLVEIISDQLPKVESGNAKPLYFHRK
The assay is described as follows: human MR NH Pro assay (PathHunter Protein:Protein interaction assay), MR antagonist activity. The settings on record: PathHunter CHO-K1 cells overexpressing human MR; aldosterone 0.3 nM to about 1 nM; 6 hours at 37° C.; luminescence; read-out: IP (rating); IP is the inflection point for a given dose-response titration curve. In kind it is cell-based. An excerpt: The activity of the compounds of the present invention regarding mineralocorticoid receptor antagonism can be evaluated using the following assay.
Assessment of MR Potency in HMR NH Pro Assay
The human MR NH Pro assay is a commercially available PathHunter™ Protein:Protein interaction assay (DiscoveRx; http://www.discoverx.com/nhrs/prod-nhrs.php) that measures the ability of compounds to antagonize full-length human Mineralocorticoid Receptor (MR) binding to a coactivator peptide. PathHunter™ CHO-K1 cells that overexpress human MR (Cat #93-0456C2, Lot No: 09B0913) were cultured in growth media (F12K w/Glutamine and phenol red (Gibco 11765-047) supplemented with 10% HI FBS (Gibco 16000); 0.25 mg/ml Hygromycin in PBS (Invitrogen 10687-010, 50 mg/ml); 100 I.U./mL and 100 μg/mL Pen/Strep (Gibco 15140-122); 0.6 mg/mL Geneticin (Gibco 10131-027).
Compounds were assessed for MR antagonist activity by incubating the cells with a titrating dose of compound in F12K w/Glutamine and phenol red culture media (Invitrogen 11765-047) supplemented with 1% Charcoal/Dextran Treated FBS (Hyclone #SH30068.01) and aldosterone (0.3 nM to about 1 nM) for 6 hours at 37° C. Cells were then treated with DiscoveRx detection reagent for 1 hour at room temperature and read using an Envision luminescence plate reader. % activity was measured relative to cells treated with aldosterone alone and IC50 values were calculated using ADA software.
Stock solution was prepared at 10 μM in DMSO and stored at −20° C. for assay, dilute in assay media to 1.8 or 6 nM (6× of final concentration=about 0.3 nM to about 1.0 nM)
5. Cell line: PathHunter CHO-K1 MR cells Cat #93-0456C2, Lot No: 09B0913, from operation liquid nitrogen stock.
3. The cells concentration was adjusted to 4×10^5 cells/mL.
4. Cells were (25 μL/well) added to the wells of a 384 well plate.
5. The plate was then incubated at 37° C. over night in a humidified incubator with 5% CO2.
6. Test compounds were titrated starting at 4.4 mM, 10-point titration in 1:3 dilution.
7. Aldosterone was diluted in assay media to 1.8 nM or 6 nM from 10 μM stock (final concentration to be about 0.3 nM to about 1.0 nM)
1. 10K exponentially growing cells/well (25 μL) were resuspended in assay media and plated into each well using the Multidrop (Thermo Electron) (use white wall, clear bottom assay plates (Costar #3570) and incubated overnight at 37° C., 5% CO2.
2. 0.25 μL 120× test compound (final DMSO concentration should be <1%) was added to each well n=2, 10 point titrations starting at 36.7 μM final concentration.
3. 5 μL of 6× agonist (final aldosterone concentration should be about 0.3 nM to about 1.0 nM) was added to all wells (using the PlateMate Plus; (ThermoFisher) (except those wells in columns 23 and 24)
4. 5 μL of assay media was added to all wells in column 23 and 24.
5. Cells were then incubated for 6 hrs at 37° C., 5% CO2.
6. 15 μL 3× DiscoveRx detection reagent was then added to each well.
7. Plates were incubated for 1 hour at room temperature in the dark.
8. Plates were read on Envision (PerkinElmer) luminesence plate reader and analyzed using ADA.
In the case of `N#CCCC(c1ccc(Cl)cc1F)c1n[nH]c2c(-c3ccncc3)cccc12` (centres unmarked) [Example 4, 4-(4-chloro-2-fluorophenyl)-4-(7-pyridin-4-yl-1H-indazol-3-yl)butanenitrile], the IC50 is 500 to 6000 nM.

Consider `CCC(c1ccc(Cl)cc1)(c1n[nH]c2c(NS(C)(=O)=O)cccc12)C(C)O` (single isomer, unassigned; diastereoisomer a) [Compound 24A, N-(3-(3-(4-chlorophenyl)-2-hydroxypentan-3-yl)-1H-indazol-7-yl)methane sulfonamide(diastereoisomer A)], for which the IC50 is below 100 nM. On to `Fc1cc(Cl)ccc1Cc1n[nH]c2ccccc12` [Example 1, 3-(4-chloro-2-fluorobenzyl)-1H-indazole], for which the IC50 was in the range of 500 to 6000 nM. In the case of `COC(=O)Cn1nc(C(CCC#N)c2ccc(Cl)cc2F)c2ccccc21` (centres unmarked) [Example 17A, methyl {3-[1-(4-chloro-2-fluorophenyl)-3-cyanopropyl]-1H-indazol-1-yl}acetate] it was 500 to 6000 nM; in that of `N#CCCC(c1ccc(Cl)cc1F)c1nn(Cc2ccccc2)c2ccccc12` (centres unmarked) [Example 16, 4-(1-benzyl-1H-indazol-3-yl)-4-(4-chloro-2-fluorophenyl)butanenitrile], 500 to 6000 nM.

Regarding `CC(C)(O)CCC(c1ccc(Cl)cc1F)c1n[nH]c2c(NS(C)(=O)=O)cccc12` (centres unmarked) [Example 10, n-{3-[1-(4-chloro-2-fluorophenyl)-4-hydroxy-4-methylpentyl]-1H-indazol-7-yl}methanesulfonamide], the IC50 lay within 500 to 6000 nM.

`CCCn1nc(C(CCC#N)c2ccc(Cl)cc2F)c2ccccc21` (centres unmarked) [Example 15, 4-(4-chloro-2-fluorophenyl)-4-(1-propyl-1H-indazol-3-yl)butanenitrile]: the IC50 was in the range of 500 to 6000 nM.

Turning to `Cc1noc(CCC(c2ccc(Cl)cc2F)c2n[nH]c3c(NS(C)(=O)=O)cccc23)n1` (centres unmarked) [Example 8, N-{3-[1-(4-chloro-2-fluorophenyl)-3-(3-methyl-1,2,4-oxadiazol-5-yl)propyl]-1H-indazol-7-yl}methanesulfonamide], the IC50 lay in the range of 500 to 6000 nM. In the case of `N#CCCC(c1ccc(Cl)cc1F)c1n[nH]c2c(-c3cccnc3)cccc12` (centres unmarked) [Example 3, 4-(4-chloro-2-fluorophenyl)-4-(7-pyridin-3-yl-1H-indazol-3-yl)butanenitrile] it was 500 to 6000 nM; in that of `CC(C)(C)OC(=O)Cn1nc(C(CCC#N)c2ccc(Cl)cc2F)c2ccccc21` (centres unmarked) [Example 17B, tert-Butyl {3-[1-(4-chloro-2-fluorophenyl)-3-cyanopropyl]-1H-indazol-1-yl}acetate], 500 to 6000 nM; in that of `CCC(C#N)(c1ccc(Cl)cc1)c1n[nH]c2c(NS(C)(=O)=O)cccc12` (centres unmarked) [Compound 23, N-(3-(1-(4-chlorophenyl)-1-cyanopropyl)-1H-indazol-7-yl)methanesulfonamide], 500 to 6000 nM.

On to `CC(=O)CCC(c1ccc(Cl)cc1F)c1n[nH]c2c(NS(C)(=O)=O)cccc12` (centres unmarked) [Example 9, N-{3-[1-(4-chloro-2-fluorophenyl)-4-oxopentyl]-1H-indazol-7-yl}methanesulfonamide], for which the IC50 is 500 to 6000 nM. Then `CC(C)(C)OC(=O)Cn1nc(C(C)(C)c2ccc(Cl)cc2)c2ccccc21` [Example 18, tert-butyl {3-[1-(4-chlorophenyl)-1-methylethyl]-1H-indazol-1-yl}acetate], with 500 to 6000 nM. In the case of `Clc1ccc(Cc2nn(Cc3ccccc3)c3ccccc23)cc1` [Example 21, 3-(4-chlorobenzyl)-1-benzyl-1H-indazole] it was 500 to 6000 nM; in that of `N#CCCC(c1ccc(Cl)cc1F)c1nn(CC#N)c2ccccc12` (centres unmarked) [Example 17E, 4-(4-chloro-2-fluorophenyl)-4-[1-(cyano-methyl)-1H-indazol-3-yl]-butanenitrile], 500 to 6000 nM; in that of `COCCn1nc(C(CCC#N)c2ccc(Cl)cc2F)c2ccccc21` (centres unmarked) [Example 17F, 4-(4-chloro-2-fluorophenyl)-4-[1-(2-methoxyethyl)-1H-indazol-3-yl]butanenitrile], 500 to 6000 nM. Then `CCC(c1ccc(Cl)cc1)(c1n[nH]c2c(NS(C)(=O)=O)cccc12)C(C)O` (single isomer, unassigned; diastereoisomer b) [Compound 24B], with below 100 nM; and `CS(=O)(=O)Nc1cccc2c(C(CC#N)c3ccc(Cl)cc3F)n[nH]c12` (centres unmarked) [Example 6, N-{3-[1-(4-chloro-2-fluorophenyl)-2-cyanoethyl]-1H-indazol-7-yl}methanesulfonamide], with 500 to 6000 nM.

For `CCC(C#N)(c1ccc(Cl)cc1)c1n[nH]c2c([N+](=O)[O-])cccc12` (centres unmarked) [Compound 22, 2-(4-chlorophenyl)-2-(7-nitro-1H-indazol-3-yl)butanenitrile], the IC50 lay within 500 to 6000 nM. `CSCn1nc(C(CCC#N)c2ccc(Cl)cc2F)c2ccccc21` (centres unmarked) [Example 17D, 4-(4-chloro-2-fluorophenyl)-4-{1-[(methyl-sulfanyl)-methyl]-1H-indazol-3-yl}-butanenitrile]: the IC50 lay in the range of 500 to 6000 nM. Then `CCC(CO)(c1ccc(Cl)cc1)c1n[nH]c2c(NS(C)(=O)=O)cccc12` (centres unmarked) [Compound 25, N-(3-(2-(4-chlorophenyl)-1-hydroxybutan-2-yl)-1H-indazol-7-yl)methane sulfonamide], with below 100 nM; and `COC(=O)Cn1nc(Cc2ccc(Cl)cc2)c2ccccc21` [Example 20, Methyl [3-(4-chlorobenzyl)-1H-indazol-1yl]acetate], with 500 to 6000 nM. Regarding `CCC(CC)(c1ccc(Cl)cc1)c1nn(CC(=O)OC)c2ccccc12` [Example 19, methyl {3-[1-(4-chlorophenyl)-1-ethylpropyl]-1H-indazol-1-yl}acetate], the IC50 was in the range of 100 to 500 nM. As to `N#CCCC(c1ccc(Cl)cc1F)c1n[nH]c2ccccc12` (centres unmarked) [Example 12, 4-(4-chloro-2-fluorophenyl)-4-(1H-indazol-3-yl)butanenitrile], the IC50 was 500 to 6000 nM. In the case of `CCC(O)(CC)CCC(c1ccc(Cl)cc1F)c1n[nH]c2c(NS(C)(=O)=O)cccc12` (centres unmarked) [Example 11, N-{3-[1-(4-chloro-2-fluorophenyl)-4-hydroxy-4-ethylhexyl]-1H-indazol-7-yl}methanesulfonamide] it was 500 to 6000 nM; in that of `Cn1nc(C(CCC#N)c2ccc(Cl)cc2F)c2ccccc21` (centres unmarked) [Example 13, 4-(4-chloro-2-fluorophenyl)-4-(1-methyl-1H-indazol-3-yl)butanenitrile], 500 to 6000 nM.
